Laboratory results from patent publication US12509373B2, “Composition and method for the removal of biofilm” (LANXESS Corporation, priority 2020, dated 2025).

Key:
[1] = tested on: Desulfovibrio vulgaris biofilm; test: Biofilm removal, Crystal Violet Assay (anaerobic, 24 h treatment of pre-formed biofilm); format: cell-based
Protocol: A lyophilized D. vulgaris pure culture received from ATTCC was resuspended in 500 ul of MB 1249. Aseptically, the content was transferred to a 5¬mL tube of MB1249 medium. The culture was incubated in an anaerobic chamber at 30° C. for 72 hrs. Subsequently, a stock culture with a final concentration of 25% glycerol was prepared by adding equal volumes of culture and 50% glycerol. 1 ml of culture was then transferred to 2-ml cryogenic vials and stored AT-80c. The purity of the stock culture was evaluated through PCR, by amplifying the 16S rDNA region, and thus, it was verified that the original ATCC sample was a pure culture.
A 10% culture was prepared by taking 1 mL of stock culture and adding it to 9 mL of MB1249, then the culture was placed into a 30° C. side incubator within the chamber and incubated for 72 hours. After 72 hours of incubation, the 10-ml D. vulgaris culture was added to 40 ml of MB1249 medium and incubated for 48 hours. After the incubation time, the optical density of the culture was determined by taking 100 μL of culture and adding it to 900 μL of MB1249 in a cuvette. Another cuvette was filled with 1 mL of MB1249 for a blank. Then, each of culture cuvettes were read and their optical density (O.D.) was recorded by using the Thermofisher Spectronic 200 Spectrophotometer at 620 nm. Using a C1V1=C2V2 calculation and the optical density, the final concentration of culture added to the 96 well plates was ˜0.1 O.D. Then, NUNC Round bottom 96 well plates were filled with culture and anaerobic PBS+10% MB1249. The plates were placed into the side incubator of the anaerobic chamber at 30° C. for 24 hours to form biofilm.
After 24 hours of incubation at 30° C., all plates were removed from the incubator and the volume from each well was taken out with a multi-channel pipette. Then, the wells were re-filled with PBS+10% MB1249 and treatments.
The sugar analogues used in the treatment were α-Methyl D-Mannoside (αMM) and 2-Deoxy-D-Glucose (2DG). Both αMM and 2DG were purchased from Sigma. Stocks were prepared (W/V) by weighing sugar and adding anaerobic water inside the anaerobic chamber. The Glutaraldehyde, AQUCAR™ GA50 (“Glutaraldehyde”), was prepared outside of the chamber (V/V) as a safety measure. Each of the components were added at their respective concentrations for a final volume of 200 ul per well. In Table 3, the concentrations used for the synergy experiments are listed. Each experiment was done with at least six replicates for different treatments and at least 8 replicates for non-treatment controls.
Plates were then sealed with a titer-top and placed into anaerobic boxes with a gas pack. Then, incubated in an aerobic shaking incubator, 30° C. at 115 RPM. After 24 hours, the plates were processed using a Crystal Violet Assay.
After 24 hours of treatment, all the treatment solution was gently removed from plates using a multi-channel pipette. Then, 250 μL of DI water was re-filled into the wells. This step was then repeated so the plates were each rinsed twice. If residual DI water was in plates, they were inverted and gently patted onto a thick paper towel. Then, the plates were air dried in a ventilated hood.
To fix the biofilm in the wells, 250 μL per well of methanol was used, waiting time 5 minutes. This methanol was then removed and allowed to air dry. […] Then, the plates were placed into the Biotek Cytation 5, and the optical density (OD) was read at 600 nm. […]

[2] = tested on: anaerobic D. vulgaris biofilms; conditions: high levels of sugar analogs needed; WO2019/018087; cited from earlier work

Structure (SMILES): O=CCCCC=O [Glutaraldehyde]
- % OD compared to no-treatment control ([1]; Glutaraldehyde 25 ppm alone (2DG 0 ppm), 2DG combination experiment): 92.7%
- % OD compared to no-treatment control ([1]; Glutaraldehyde 25 ppm alone (αMM 0 ppm), αMM combination experiment): 99.3%
- % OD compared to no-treatment control ([1]; standalone, 2500 ppm): 97.4%

Structure (SMILES): CO[C@H]1O[C@H](CO)[C@@H](O)[C@H](O)[C@@H]1O [αMM, α-Methyl D-Mannoside]
- % OD compared to no-treatment control ([1]; standalone, 2000 ppm): 100.3%
- dispersal of anaerobic D. vulgaris biofilms [2]: disperse anaerobic D. vulgaris biofilms

Structure (SMILES): O=CC[C@@H](O)[C@H](O)[C@H](O)CO [2DG, 2-Deoxy-D-Glucose]
- % OD compared to no-treatment control ([1]; standalone, 2000 ppm): 101.7%
- dispersal of anaerobic D. vulgaris biofilms [2]: disperse anaerobic D. vulgaris biofilms
